Test results as given in publication PMC8061081 (Fitoterapia, 2021).
Where two headings read alike, the source gives them in different places.

Tests used:
SARS-CoV-2 3CL^pro [1] = target: T1, SARS-CoV-2 3CL^pro (Severe acute respiratory syndrome coronavirus 2, UniProt P0DTD1); test: Inhibition kinetics, determination of inhibition constants; assay type: biochemical; conditions: inhibition kinetic plots and Lineweaver-Burk plots
SARS-CoV-2 3CL^pro [2] = target: T1, SARS-CoV-2 3CL^pro; test: biochemical

`CCCCCCCCCCCCCCCc1cccc(O)c1C(=O)O` [GA C15:0] was tested, and the Inhibition mode (SARS-CoV-2 3CL^pro [1]) was “reversible and mixed-inhibition”.

Molecule `CC(C)(C)[C@]1(O)CC2OC(=O)CC23C(=O)OC2OC(=O)[C@H](O)C231` (some centres unmarked) [bilobalide] has an IC50 (SARS-CoV-2 3CL^pro [2]) greater than 100 µM.

`C[C@@H]1O[C@@H](Oc2c(-c3ccc(O)c(O)c3)oc3cc(O)cc(O)c3c2=O)[C@H](O)[C@H](O)[C@H]1O` [quercitrin] showed an IC50 (SARS-CoV-2 3CL^pro [2]) greater than 100 µM.

For `COc1cc(O)c2c(=O)cc(-c3ccc(O)cc3)oc2c1` [genkwanin], the IC50 (SARS-CoV-2 3CL^pro [2]) was 10.6 ± 1.89 µM.

`COc1cc(-c2oc3cc(O)cc(O)c3c(=O)c2O)ccc1O` [isorhamnetin] showed an IC50 (SARS-CoV-2 3CL^pro [2]) of 31.6 ± 16.6 µM.

With `O=c1cc(-c2ccc(O)c(-c3c(O)cc(O)c4c(=O)cc(-c5ccc(O)cc5)oc34)c2)oc2cc(O)cc(O)c12` [amentoflavone] the IC50 (SARS-CoV-2 3CL^pro [2]) was 8.65 ± 3.72 µM.

With `COc1ccc(-c2cc(=O)c3c(O)cc(O)cc3o2)cc1-c1c(O)cc(O)c2c(=O)cc(-c3ccc(O)cc3)oc12` [bilobetin] the IC50 (SARS-CoV-2 3CL^pro [2]) was 11.2 ± 2.41 µM.

With `COc1ccc(-c2cc(=O)c3c(O)cc(O)c(-c4cc(-c5cc(=O)c6c(O)cc(OC)cc6o5)ccc4OC)c3o2)cc1` [sciadopitysin] the IC50 (SARS-CoV-2 3CL^pro [2]; 3CLpro 4 μg/mL, preincubation 37 °C 40 min, substrate 20 μM, PBS pH 7.4) was 1.09 ± 0.19 µM and the Inhibition mode (SARS-CoV-2 3CL^pro [1]) was “reversible and mixed-inhibition”.

`CCCCCC/C=C\CCCCCCCc1cccc(O)c1C(=O)O` [GA C15:1] was tested, and the IC50 (SARS-CoV-2 3CL^pro [2]; pH 7.4) was 3.45 ± 0.78 µM.

Work on `CCCCCCCCCCCCCc1cccc(O)c1C(=O)O` [GA C13:0] yielded an IC50 (SARS-CoV-2 3CL^pro [2]; pH 7.4) of 3.57 ± 0.9 µM.

In the case of `COc1cc(O)c2c(=O)cc(-c3ccc(OC)c(-c4c(O)cc(O)c5c(=O)cc(-c6ccc(O)cc6)oc45)c3)oc2c1` [ginkgetin], the IC50 (SARS-CoV-2 3CL^pro [2]) is reported as 2.98 ± 0.86 µM.

For `CCCCCC/C=C\CCCCCCCCCc1cccc(O)c1C(=O)O` [GA C17:1], the IC50 (SARS-CoV-2 3CL^pro [2]; pH 7.4) was 1.19 ± 0.15 µM and the Inhibition mode (SARS-CoV-2 3CL^pro [1]) was “reversible and mixed-inhibition”.

Molecule `COc1ccc(-c2cc(=O)c3c(O)cc(O)c(-c4cc(-c5cc(=O)c6c(O)cc(O)cc6o5)ccc4OC)c3o2)cc1` [isoginkgetin] has an IC50 (SARS-CoV-2 3CL^pro [2]) of 2.33 ± 0.46 µM.

In the case of `O=c1c(O)c(-c2ccc(O)cc2)oc2cc(O)cc(O)c12` [kaempferol], the IC50 (SARS-CoV-2 3CL^pro [2]) is reported as greater than 100 µM.

`C[C@@H]1C(=O)O[C@H]2C[C@@]34[C@H]5C[C@@H](C(C)(C)C)[C@]36[C@@H](OC(=O)[C@@H]6O)O[C@@]4(C(=O)O5)[C@]21O` [ginkgolide A] gave an IC50 (SARS-CoV-2 3CL^pro [2]) greater than 100 µM.
